Consider four molecules from US4946995A, “Process for the production of thiocarbohydrazide” (Mobay Corporation, priority 1989, dated 1990).

Molecules are shown by their SMILES. Read-outs that look alike come from different tables or passages of the source.

Data set [1] can be described thus: solubility of HDTC in alcohols. In kind it is physicochemical. Conditions: alcohols (methanol, ethanol and isopropanol). On the procedure:
The HDTC may be made by any of the methods known to those in the art. One relatively simple method for producing HDTC in quantitative yields is to react carbon disulfide with hydrazine in a molar ratio of 1:2 in an alcohol at 0°-30° C. Appropriate alcohols include methanol, ethanol and isopropanol. […] If hydrazine hydrate is used to produce the HDTC, the water present in the alcohol upon completion of the reaction may be removed by distillation.

For data set [2] the following is noted: footnote of Table 2, cited from earlier work.

As to `NNC(=S)S` [HDTC, Hydrazinium-dithiocarbazinate], in data set [1], the solubility in alcohols entry is reported as “virtually insoluble”.
What is called pKb is the negative decadic logarithm of the Kb, by convention in mol/L. `CN(C)c1ccncc1` [DMAP, dimethylaminopyridine]: in data set [2] (pKb), the pKb is listed as 4.3.
On to `C1CN2CCN1CC2` [DABCO, diazabicyclooctane], for which the pKb in data set [2] (pKb) is on record as 3.0; in data set [2] (second printed pKb), 8.7.
For the molecule `CCN(CC)CC` [TEA, triethylamine], in data set [2] (pKb), the pKb is on record as 3.35.
